From US20070004660A1, “Synergistic Modulation of Flt3 Kinase Using Alkylquinolines and Alkylquinazolines” (priority 2005, published 2007) come the findings set out here.

Each structure is given as a SMILES string.

One experiment relates to MV4-11 cells. In words: Inhibition of MV4-11 cell proliferation (CellTiterGlo, 72 h). In kind it is cell-based. The note with it: Homo sapiens; 72 h growth inhibition; uncertainty ±20%.
The target in experiment [1] is T1, isolated kinase domain of the human FLT3 receptor (a.a. 571-993) (Homo sapiens, UniProt P36888).
T1 construct: human FLT3 receptor (a.a. 571-993)
T1 sequence (P36888 571-993): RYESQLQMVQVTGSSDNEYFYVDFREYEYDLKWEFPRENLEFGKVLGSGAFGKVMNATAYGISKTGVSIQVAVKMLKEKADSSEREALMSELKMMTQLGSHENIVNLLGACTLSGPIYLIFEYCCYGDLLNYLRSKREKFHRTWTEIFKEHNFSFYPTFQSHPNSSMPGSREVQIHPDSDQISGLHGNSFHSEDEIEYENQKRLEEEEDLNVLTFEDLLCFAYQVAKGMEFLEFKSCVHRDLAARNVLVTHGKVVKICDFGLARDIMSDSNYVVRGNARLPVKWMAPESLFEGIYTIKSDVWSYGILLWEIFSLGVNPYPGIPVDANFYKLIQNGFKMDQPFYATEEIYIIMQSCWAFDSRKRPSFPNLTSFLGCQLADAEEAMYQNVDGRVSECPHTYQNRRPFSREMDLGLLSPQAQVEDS
Description: FLT3 fluorescence polarization kinase assay. The note with it: 150 uM ATP; uncertainty ±10%. In kind it is biochemical.

For `O=C(CO)N1CCN(c2ccc3c(C4CCN(C(=O)Nc5ccc(N6CCCC6)cc5)CC4)ncnc3c2)CC1` [Compound 201, 4-{7-[4-(2-Hydroxy-acetyl)-piperazin-1-yl]-quinazolin-7-yl}-piperidine-1-carboxylic acid (4-pyrrolidin-1-yl-phenyl)-amide], the IC50 was 16 nM in the experiment on MV4-11 cells and 17 nM in experiment [1].

As to `O=C(Nc1ccc(N2CCCC2)cc1)N1CCC(c2ncnc3cc(N4CCSCC4)ccc23)CC1` [Compound 182, 4-(7-Thiomorpholin-4-yl-quinazolin-4-yl)-piperidine-1-carboxylic acid (4-pyrrolidin-1-yl-phenyl)-amide], the half-maximal inhibitory concentration (IC50) in the experiment with MV4-11 cells was 107 nM; in experiment [1] it was 11 nM.

On to `O=C(Nc1ccc(N2CCOCC2)cc1)N1CCC(c2ncnc3cc(N4CCC[C@@H]4CO)ccc23)CC1` [Example 132, (R)-4-[7-(2-Hydroxymethyl-pyrrolidin-1-yl)-quinazolin-4-yl]-piperidine-1-carboxylic acid (4-morpholin-4-yl-phenyl)-amide], for which the IC50 in the experiment on MV4-11 cells came to 33 nM; in experiment [1], 67 nM.

As for `O=C1CN(c2ccc3c(C4CCN(C(=O)Nc5ccc(N6CCCC6)cc5)CC4)ncnc3c2)CCN1` [Compound 183, 4-[7-(3-Oxo-piperazin-1-yl)-quinazolin-4-yl]-piperidine-1-carboxylic acid (4-pyrrolidin-1-yl-phenyl)-amide], the values for the IC50 (in the experiment with MV4-11 cells; in experiment [1]) were 18 nM and 3 nM, respectively.

For `O=C(Nc1ccc(N2CCCC2)cc1)N1CCC(c2ncnc3cc(N4CCN(c5ccccn5)CC4)ccc23)CC1` [Compound 192, 4-[7-(4-Pyridin-2-yl-piperazin-1-yl)-quinazolin-4-yl]-piperidine-1-carboxylic acid (4-pyrrolidin-1-yl-phenyl)-amide], the IC50 in the experiment with MV4-11 cells came to 13 nM; in experiment [1], 2 nM.

As to `O=C(Nc1ccc(N2CCCC2)cc1)N1CCC(c2ncnc3cc(OC4CCOCC4)ccc23)CC1` [Compound 189, 4-[7-(Tetrahydro-pyran-4-yloxy)-quinazolin-4-yl]-piperidine-1-carboxylic acid (4-pyrrolidin-1-yl-phenyl)-amide], the IC50 in the experiment on MV4-11 cells came to 286 nM; in experiment [1], 1130 nM.

For the compound `O=C(Nc1ccc(N2CCOCC2)cc1)N1CCC(c2ncnc3cc(OCCCN4CCOCC4)ccc23)CC1` [Example 133, 4-[7-(3-Morpholin-4-yl-propoxy)-quinazolin-4-yl]-piperidine-1-carboxylic acid (4-morpholin-4-yl-phenyl)-amide], the IC50 turned out to be 58 nM in the experiment on MV4-11 cells and 2 nM in experiment [1].

In the case of `CN1CCN(CCOc2ccc3c(C4CCN(C(=O)Nc5ccc(N6CCOCC6)cc5)CC4)ncnc3c2)CC1` [Example 156, 4-{7-[2-(4-Methyl-piperazin-1-yl)-ethoxy]-quinazolin-4-yl}-piperidine-1-carboxylic acid (4-morpholin-4-yl-phenyl)-amide], the half-maximal inhibitory concentration (IC50) in the experiment on MV4-11 cells turned out to be 74 nM; in experiment [1], 6 nM.

As to `O=C(Nc1ccc(N2CCCC2)cc1)N1CCC(c2ncnc3cc(N4CCNC4=O)ccc23)CC1` [Compound 178, 4-[7-(2-Oxo-imidazolidin-1-yl)-quinazolin-4-yl]-piperidine-1-carboxylic acid (4-pyrrolidin-1-yl-phenyl)-amide], the IC50 in the experiment on MV4-11 cells came out at 11 nM; in experiment [1], 10 nM.

`O=C(Nc1ccc(N2CCCC2)cc1)N1CCC(c2ncnc3cc(OCC4CCOCC4)ccc23)CC1` [Compound 188, 4-[7-(Tetrahydro-pyran-4-ylmethoxy)-quinazolin-4-yl]-piperidine-1-carboxylic acid (4-pyrrolidin-1-yl-phenyl)-amide]: the IC50 in the experiment on MV4-11 cells was 67 nM; in experiment [1], 386 nM.

Regarding `O=C(Nc1ccc(N2CCOCC2)cc1)N1CCC(c2ncnc3cc(N4CCC[C@H]4CO)ccc23)CC1` [Example 139, (S)-4-[7-(2-Hydroxymethyl-pyrrolidin-1-yl)-quinazolin-4-yl]-piperidine-1-carboxylic acid (4-morpholin-4-yl-phenyl)-amide], the values for the IC50 (with MV4-11 cells; in experiment [1]) were 387 nM and 33 nM, respectively.

As to `CN1CCN(c2ccc3c(C4CCN(C(=O)Nc5ccc(N6CCOCC6)cc5)CC4)ncnc3c2)CC1` [Example 135, 4-[7-(4-Methyl-piperazin-1-yl)-quinazolin-4-yl]-piperidine-1-carboxylic acid (4-morpholin-4-yl-phenyl)-amide], the IC50 in the experiment with MV4-11 cells stood at 125 nM; in experiment [1] it was 27 nM.

For `O=C(Nc1ccc(N2CCOCC2)cc1)N1CCC(c2ncnc3cc(OCCN4CCOC4=O)ccc23)CC1` [Example 148, 4-{7-[2-(2-Oxo-oxazolidin-3-yl)-ethoxy]-quinazolin-4-yl}-piperidine-1-carboxylic acid (4-morpholin-4-yl-phenyl)-amide], the IC50 in the experiment with MV4-11 cells amounted to 66 nM; in experiment [1] it was 30 nM.

For `CCN1CCN(c2ccc3c(C4CCN(C(=O)Nc5ccc(N6CCOCC6)cc5)CC4)ncnc3c2)CC1` [Example 136, 4-[7-(4-Ethyl-piperazin-1-yl)-quinazolin-4-yl]-piperidine-1-carboxylic acid (4-morpholin-4-yl-phenyl)-amide], the IC50 is 163 nM in the experiment on MV4-11 cells and 25 nM in experiment [1].

`O=C(Nc1ccc(N2CCCC2)cc1)N1CCC(c2ncnc3cc(N4CCOC4=O)ccc23)CC1` [Example 176, 4-[7-(2-Oxo-oxazolidin-3-yl)-quinazolin-4-yl]-piperidine-1-carboxylic acid (4-pyrrolidin-1-yl-phenyl)-amide]: the IC50 is 8 nM in the experiment with MV4-11 cells and 102 nM in experiment [1].

As for `O=C(COc1ccc2c(C3CCN(C(=O)Nc4ccc(N5CCCC5)cc4)CC3)ncnc2c1)N1CCOCC1` [Example 172, 4-[7-(2-Morpholin-4-yl-2-oxo-ethoxy)-quinazolin-4-yl]-piperidine-1-carboxylic acid (4-pyrrolidin-1-yl-phenyl)-amide], the IC50 with MV4-11 cells amounted to 248 nM; in experiment [1], 542 nM.

As for `CN1CCN(CCOc2ccc3c(C4CCN(C(=O)Nc5ccc(N6CCCC6)cc5)CC4)ncnc3c2)CC1=O` [Compound 202, 4-{7-[2-(4-Methyl-3-oxo-piperazin-1-yl)-ethoxy]-quinazolin-4-yl}-piperidine-1-carboxylic acid (4-pyrrolidin-1-yl-phenyl)-amide], the 50% inhibitory concentration (IC50) was determined as 74 nM in the experiment on MV4-11 cells and 90 nM in experiment [1].

`CN(C)[C@@H]1CCN(c2ccc3c(C4CCN(C(=O)Nc5ccc(N6CCCC6)cc5)CC4)ncnc3c2)C1` [Example 149, (R)-4-[7-(3-Dimethylamino-pyrrolidin-1-yl)-quinazolin-4-yl]-piperidine-1-carboxylic acid (4-pyrrolidin-1-yl-phenyl)-amide]: the IC50 (in the experiment on MV4-11 cells; in experiment [1]) was 46 nM in each case.

Consider `CCNC(=O)N1CCN(c2ccc3c(C4CCN(C(=O)Nc5ccc(N6CCCC6)cc5)CC4)ncnc3c2)CC1` [Compound 199, 4-{4-[1-(4-Pyrrolidin-1-yl-phenylcarbamoyl)-piperidin-4-yl]-quinazolin-7-yl}-piperazine-1-carboxylic acid ethylamide], for which the 50% inhibitory concentration (IC50) in the experiment with MV4-11 cells was found to be 3 nM; in experiment [1], 28 nM.

`CN1CCN(CCCOc2cc3ncnc(C4CCN(C(=O)Nc5ccc(N6CCOCC6)cc5)CC4)c3cc2F)CC1` [Compound 205, 4-{6-Fluoro-7-[3-(4-methyl-piperazin-1-yl)-propoxy]-quinazolin-4-yl}-piperidine-1-carboxylic acid (4-morpholin-4-yl-phenyl)-amide]: the IC50 with MV4-11 cells turned out to be 78 nM; in experiment [1] it was 63 nM.
